{"source": "paper PMC10138554", "about": "“Insights into the Microbicidal, Antibiofilm, Antioxidant and Toxicity Profile of New O-Aryl-Carbamoyl-Oxymino-Fluorene Derivatives” (International Journal of Molecular Sciences, 2023)", "test": "Toxicity on the Artemia franciscana Kellog crustacean species (lethality of nauplii)", "format": "in vivo", "conditions": "Artemia franciscana Kellog (brine shrimp nauplii), in vivo, other: nauplii placed in contact with the test suspensions, four-parameter logistic model", "procedure": "The oocysts (Great Salt Lake, USA) provided by S.K. Trading were grown on artificial seawater medium (Coral Marine, Grotech), dissolved in distilled water with a few minutes of sonication, at 30 g/L concentration. The test was carried out in a 24-well plate, using three replicates. Because of their low solubility, the compounds 1a–d were suspended in the culture medium using sodium alginate (0.045%) (also used a negative control), the testing being carried out at the solubility limit. The concentrations 100, 50, 25, 12.5 and 6.2 μg/mL used for each substance were obtained by successive dilutions starting from the initial suspension. Between 10 and 15 nauplii per well were collected and placed in contact with the test suspensions (1.5 mL/well). All nauplii, dead or alive, were counted and recorded within 24 h of being placed in contact with the tested suspensions. The non-linear modeling of the concentration-lethality relationship was achieved through a four-parameter logistics model (4PL), implemented in several robust variants for estimating parameters in the R package “dr4pl” [78]."}
{"smiles": "O=C(Nc1ccc(Cl)c(Cl)c1)ON=C1c2ccccc2-c2ccccc21", "note": "[Compound 1d, 9-((3,4-dichloro-phenyl)carbamoyloxymino)fluoren]", "values": [{"measurement": "LC50 at 24 h", "value": 14.6, "unit": "µg/mL"}]}
